Reference: patent publication US7223865B2, “Chromogenic compounds, and use thereof as enzyme substrates” (Biomerieux, priority 2003, dated 2007)
Values belong to the molecule of their own block, whether it stands above or below them.

Legend:
Type in all cases: cell-based
[1] = tested on: Staphylococcus aureus (070); assay: L-alanine-aminopeptidase activity on gelled medium, Example 2
Protocol: (§1) A gelled medium comprising L-Ala-4-AP-10-AA as substrate is prepared as follows: 46.37 g of Columbia agar are added to 1 liter of distilled water and then autoclaved. The reaction medium is separated into three media of equivalent volume. Each of these media comprises, respectively, 0.1 g/l, 0.2 g/l, 0.4 g/l of L-Ala-4-AP-10-AA provided by means of a stock solution in DMSO.
(§2) Microorganisms derived from the applicant's collection were seeded onto each of the media, by delimitation as three dials, using a suspension at 0.5 McFarland. The dishes were incubated at 37° C. for 48 hours. The colonies formed were examined visually after incubation for 24 and 48 hours. The color of these colonies and also the intensity of this color were noted.
(§3) The results are expressed as color intensity, using an arbitrary scale range of from 0 to 4 as a basis.

[2] = tested on: Streptococcus pyogenes (067); assay: as above
Protocol: as §1, §2, §3

[3] = tested on: Enterococcus faecalis (075); assay: as above; details: for Intensity: scale 0 to 4
Protocol: as §1, §2, §3

[4] = tested on: Citrobacter koseri (090); assay: as above; details: for Intensity: scale 0 to 4
Protocol: as §1, §2, §3

[5] = tested on: Listeria innocua (036); assay: as above
Protocol: as §1, §2, §3

[6] = tested on: Proteus mirabilis (103); assay: as above; details: for Intensity: scale 0 to 4
Protocol: as §1, §2, §3

[7] = tested on: Klebsiella pneumoniae (023); assay: as above; details: for Intensity: scale 0 to 4
Protocol: as §1, §2, §3

[8] = tested on: Escherichia coli (032); assay: as above; details: for Intensity: scale 0 to 4
Protocol: as §1, §2, §3

[9] = tested on: Candida albicans (056); assay: as above
Protocol: as §1, §2, §3

[10] = tested on: Staphylococcus aureus (035); assay: L-alanine-aminopeptidase activity on gelled medium, Example 4; details: 0.3 g/l, after the addition of HCl
Protocol: (§4) A gelled medium comprising L-Ala-2-MeOAPA or L-Ala-2,5-diMeOAPA is prepared as follows: 46.37 g of Columbia agar are added to 1 liter of distilled water and then autoclaved. This reaction medium is separated into two media of equivalent volume. Each of these media comprises, respectively: 0.3 g/l of L-Ala-2-MeOAPA, introduced by means of a stock solution in DMSO, and 0.3 g/l of L-Ala-2,5-diMeOAPA, also introduced by means of a stock solution in DMSO. Microorganisms derived from the applicant's collection were seeded onto each of the media, by delimitation as three dials, using a suspension at 0.5 McFarland. […] The color of these colonies and also the intensity of this color were noted after the addition of HCl.

[11] = tested on: Enterobacter cloacae (061); assay: as above; details: 0.3 g/l, after the addition of HCl
Protocol: as §4

[12] = tested on: Enterococcus faecalis (117); assay: as above; details: for Color / Intensity: 0.3 g/l, after the addition of HCl
Protocol: as §4

[13] = tested on: Candida albicans (077); assay: as above; details: 0.3 g/l, after the addition of HCl
Protocol: as §4

[14] = tested on: Proteus mirabilis (037); assay: as above; details: 0.3 g/l, after the addition of HCl
Protocol: as §4

[15] = tested on: Listeria innocua (036); assay: as above; details: 0.3 g/l, after the addition of HCl
Protocol: as §4

[16] = tested on: Streptococcus agalactiae (001); assay: as above; details: 0.3 g/l, after the addition of HCl
Protocol: as §4

[17] = tested on: Klebsiella pneumoniae (023); assay: as above; details: 0.3 g/l, after the addition of HCl
Protocol: as §4

[18] = tested on: Citrobacter koseri (012); assay: as above; details: 0.3 g/l, after the addition of HCl
Protocol: (§5) A gelled medium comprising L-Ala-2-MeOAPA or L-Ala-2,5-diMeOAPA is prepared as follows: 46.37 g of Columbia agar are added to 1 liter of distilled water and then autoclaved. This reaction medium is separated into two media of equivalent volume. Each of these media comprises, respectively: 0.3 g/l of L-Ala-2-MeOAPA, introduced by means of a stock solution in DMSO, and 0.3 g/l of L-Ala-2,5-diMeOAPA, also introduced by means of a stock solution in DMSO. Microorganisms derived from the applicant's collection were seeded onto each of the media, by delimitation as three dials, using a suspension at 0.5 McFarland. The dishes were incubated at 37° C. for 24 hours. The color of these colonies and also the intensity of this color were noted after the addition of HCl.

[19] = tested on: Escherichia coli (032); assay: as above; details: 0.3 g/l, after the addition of HCl
Protocol: as §5

SMILES: C=CC[n+]1c2ccccc2c(-c2ccc(NC(=O)[C@H](C)N)cc2)c2ccccc21.[Cl-] [L-Ala-4-AP-10-AA, L-alanyl-9-(4-aminophenyl)-10-allylacridinium chloride]
- Color ([1]; 0.1 g/l, 24 H): inhibited
- Color ([1]; 0.1 g/l, 48 h): inhibited
- Color ([1]; 0.2 g/l, 24 H): inhibited
- Color ([1]; 0.2 g/l, 48 h): inhibited
- Color ([1]; 0.4 g/l, 24 H): inhibited
- Color ([1]; 0.4 g/l, 48 h): inhibited
- Color ([2]; 0.1 g/l, 24 H): inhibited
- Color ([2]; 0.1 g/l, 48 h): colorless
- Color ([2]; 0.2 g/l, 24 H): inhibited
- Color ([2]; 0.2 g/l, 48 h): colorless
- Color ([2]; 0.4 g/l, 24 H): inhibited
- Color ([2]; 0.4 g/l, 48 h): colorless
- Color ([3]; 0.1 g/l, 24 H): colorless
- Color ([3]; 0.1 g/l, 48 h): colorless
- Color ([3]; 0.2 g/l, 24 H): orange
- Intensity ([3]; 0.2 g/l, 24 H): traces
- Color ([3]; 0.2 g/l, 48 h): orange
- Intensity ([3]; 0.2 g/l, 48 h): 0.5
- Color ([3]; 0.4 g/l, 24 H): orange
- Intensity ([3]; 0.4 g/l, 24 H): traces
- Color ([3]; 0.4 g/l, 48 h): orange
- Intensity ([3]; 0.4 g/l, 48 h): 1
- Color ([4]; 0.1 g/l, 24 H): beige
- Intensity ([4]; 0.1 g/l, 24 H): 0.5
- Color ([4]; 0.1 g/l, 48 h): beige
- Intensity ([4]; 0.1 g/l, 48 h): 0.5
- Color ([4]; 0.2 g/l, 24 H): pink-
- Intensity ([4]; 0.2 g/l, 24 H): 1
- Color ([4]; 0.2 g/l, 48 h): pink-
- Intensity ([4]; 0.2 g/l, 48 h): 2
- Color ([4]; 0.4 g/l, 24 H): pink-
- Intensity ([4]; 0.4 g/l, 24 H): 3
- Color ([4]; 0.4 g/l, 48 h): pink-
- Intensity ([4]; 0.4 g/l, 48 h): 3.5
- Color ([5]; 0.1 g/l, 24 H): colorless
- Color ([5]; 0.1 g/l, 48 h): colorless
- Color ([5]; 0.2 g/l, 24 H): colorless
- Color ([5]; 0.2 g/l, 48 h): colorless
- Color ([5]; 0.4 g/l, 24 H): colorless
- Color ([5]; 0.4 g/l, 48 h): colorless
- Color ([6]; 0.1 g/l, 24 H): beige
- Intensity ([6]; 0.1 g/l, 24 H): traces
- Color ([6]; 0.1 g/l, 48 h): beige
- Intensity ([6]; 0.1 g/l, 48 h): traces
- Color ([6]; 0.2 g/l, 24 H): pink-
- Intensity ([6]; 0.2 g/l, 24 H): 0.5
- Color ([6]; 0.2 g/l, 48 h): pink-
- Intensity ([6]; 0.2 g/l, 48 h): 1
- Color ([6]; 0.4 g/l, 24 H): pink-
- Intensity ([6]; 0.4 g/l, 24 H): 3
- Color ([6]; 0.4 g/l, 48 h): pink-
- Intensity ([6]; 0.4 g/l, 48 h): 3
- Color ([7]; 0.1 g/l, 24 H): beige
- Intensity ([7]; 0.1 g/l, 24 H): traces
- Color ([7]; 0.1 g/l, 48 h): beige
- Intensity ([7]; 0.1 g/l, 48 h): traces
- Color ([7]; 0.2 g/l, 24 H): pink-
- Intensity ([7]; 0.2 g/l, 24 H): 1
- Color ([7]; 0.2 g/l, 48 h): pink-
- Intensity ([7]; 0.2 g/l, 48 h): 2
- Color ([7]; 0.4 g/l, 24 H): pink-
- Intensity ([7]; 0.4 g/l, 24 H): 3
- Color ([7]; 0.4 g/l, 48 h): pink-
- Intensity ([7]; 0.4 g/l, 48 h): 3.5
- Color ([8]; 0.1 g/l, 24 H): beige
- Intensity ([8]; 0.1 g/l, 24 H): 0.5
- Color ([8]; 0.1 g/l, 48 h): beige
- Intensity ([8]; 0.1 g/l, 48 h): 0.5
- Color ([8]; 0.2 g/l, 24 H): pink-
- Intensity ([8]; 0.2 g/l, 24 H): 2
- Color ([8]; 0.2 g/l, 48 h): pink-
- Intensity ([8]; 0.2 g/l, 48 h): 2
- Color ([8]; 0.4 g/l, 24 H): pink-
- Intensity ([8]; 0.4 g/l, 24 H): 2.5
- Color ([8]; 0.4 g/l, 48 h): pink-
- Intensity ([8]; 0.4 g/l, 48 h): 3
- Color ([9]; 0.1 g/l, 24 H): colorless
- Color ([9]; 0.1 g/l, 48 h): colorless
- Color ([9]; 0.2 g/l, 24 H): colorless
- Color ([9]; 0.2 g/l, 48 h): colorless
- Color ([9]; 0.4 g/l, 24 H): colorless
- Color ([9]; 0.4 g/l, 48 h): colorless

- Color ([11]; 24 H): Yellow-orange
- Intensity ([11]; 24 H): 1.5
- Color ([11]; 48 h): Yellow-orange
- Intensity ([11]; 48 h): 2
- Color ([12]; 24 H): Yellow-orange
- Intensity ([12]; 24 H): 0.5
- Color ([12]; 48 h): Yellow-orange
- Intensity ([12]; 48 h): 3
- L-alanine-aminopeptidase activity ([12]; after incubation for 48 hours): exhibits an activity
- Color ([14]; 24 H): colorless
- Intensity ([14]; 24 H): 0
- Color ([14]; 48 h): orange
- Intensity ([14]; 48 h): 0.5
- Color ([15]; 24 H): colorless
- Intensity ([15]; 24 H): 0
- Color ([15]; 48 h): colorless
- Intensity ([15]; 48 h): 0
- Color ([16]; 24 H): colorless
- Intensity ([16]; 24 H): 0
- Color ([16]; 48 h): colorless
- Intensity ([16]; 48 h): 0
- Color ([17]; 24 H): orange
- Intensity ([17]; 24 H): 1
- Color ([17]; 48 h): Yellow-orange
- Intensity ([17]; 48 h): 2.5
- Color ([18]; 24 H): orange
- Intensity ([18]; 24 H): 1
- Color ([18]; 48 h): Yellow-orange
- Intensity ([18]; 48 h): 2.5
SMILES: COc1cc(-c2c3ccccc3nc3ccccc23)c(OC)cc1NC(=O)[C@H](C)N [L-Ala-2,5-diMeOAPA, L-alanyl-2,5-dimethoxyaminophenylacridine]
- Color ([10]; 24 H): colorless
- Intensity ([10]; 24 H): 0
- Color ([10]; 48 h): colorless
- Intensity ([10]; 48 h): 0
- Color ([13]; 24 H): colorless
- Intensity ([13]; 24 H): 0
- Color ([13]; 48 h): colorless
- Intensity ([13]; 48 h): 0
- Color ([19]; 24 H): Yellow-orange
- Intensity ([19]; 24 H): 1.5
- Color ([19]; 48 h): Yellow-orange
- Intensity ([19]; 48 h): 2

- Color ([11]; 24 H): pink
- Intensity ([11]; 24 H): 2
- Color ([11]; 48 h): pink
- Intensity ([11]; 48 h): 2
- Color ([12]; 24 H): inhibited
- Color ([12]; 48 h): inhibited
- Color ([14]; 24 H): orange
- Intensity ([14]; 24 H): 1
- Color ([14]; 48 h): orange
- Intensity ([14]; 48 h): 1.5
- Color ([15]; 24 H): colorless*
- Intensity ([15]; 24 H): 0
- Color ([15]; 48 h): colorless*
- Intensity ([15]; 48 h): 0
- Color ([16]; 24 H): inhibited
- Color ([16]; 48 h): inhibited
- Color ([17]; 24 H): pink
- Intensity ([17]; 24 H): 3
- Color ([17]; 48 h): pink
- Intensity ([17]; 48 h): 3.5
- Color ([18]; 24 H): orange
- Intensity ([18]; 24 H): 2
- Color ([18]; 48 h): pink
- Intensity ([18]; 48 h): 3.5
SMILES: COc1cc(-c2c3ccccc3nc3ccccc23)ccc1NC(=O)[C@H](C)N [L-Ala-2-MeOAPA, L-alanyl-2-methoxy-aminophenylacridine]
- Color ([10]; 24 H): colorless*
- Intensity ([10]; 24 H): 0
- Color ([10]; 48 h): colorless*
- Intensity ([10]; 48 h): 0
- Color ([13]; 24 H): inhibited
- Color ([13]; 48 h): inhibited
- Color ([19]; 24 H): orange
- Intensity ([19]; 24 H): 0.5
- Color ([19]; 48 h): pink
- Intensity ([19]; 48 h): 3.5
